# Test results published in patent US6001867A, “1-aryl-dibenzothiophenes” (American Home Products Corporation, priority 1999, dated 1999).
# What was measured:
# [1] = test system: rat hepatic microsomal PTPases; details: test compound 50 μM; rat hepatic microsomal fraction; substrate 50 uM, 37 deg.C
# [2] = biological target: T1, Human recombinant PTP1B (hPTP1B) (Homo sapiens, UniProt P18031)
# T1 sequence (P18031 1-435): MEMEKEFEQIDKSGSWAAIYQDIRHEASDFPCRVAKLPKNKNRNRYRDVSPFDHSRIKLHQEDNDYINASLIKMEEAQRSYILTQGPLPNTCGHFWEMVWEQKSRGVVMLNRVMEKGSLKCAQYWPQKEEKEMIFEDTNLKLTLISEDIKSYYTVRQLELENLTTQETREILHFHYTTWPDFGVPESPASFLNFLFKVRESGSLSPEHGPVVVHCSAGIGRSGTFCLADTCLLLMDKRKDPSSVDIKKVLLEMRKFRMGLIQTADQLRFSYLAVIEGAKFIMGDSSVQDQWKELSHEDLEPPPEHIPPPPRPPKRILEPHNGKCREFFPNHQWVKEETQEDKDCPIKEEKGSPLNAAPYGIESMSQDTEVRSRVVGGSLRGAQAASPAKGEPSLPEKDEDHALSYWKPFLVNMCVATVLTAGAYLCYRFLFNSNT
# [3] = literature study; cited from earlier work
% Change from Control (PTPase activity) [1],IC50 [2],SMILES,carcinogenicity [3]
-51.63%,–,"Oc1ccc(-c2cccc3sc4ccccc4c23)cc1 [Example 3, 4-(Dibenzothiophen-1-yl)-phenol]",–
-31.13%,–,"Oc1ccc(-c2c(Br)ccc3sc4ccccc4c23)cc1 [Example 6, 4-(2-Bromo-dibenzothiophen-1-yl)-phenol]",–
-18.53%,1890 nM,"Oc1c(Br)cc(-c2cccc3sc4ccccc4c23)cc1Br [Example 7, 2,6-Dibromo-4-(dibenzothiophen-1-yl)-phenol]",–
-21.11%,–,"COC(=O)COc1ccc(-c2c(Br)ccc3sc4ccccc4c23)cc1 [Example 10, [4-(2-Bromo-dibenzothiophen-1-yl)-phenoxy]-acetic Acid Methyl Ester]",–
-19.49%,–,"O=C(O)COc1ccc(-c2cccc3sc4ccccc4c23)cc1 [Example 12, [4-(Dibenzothiophen-1-yl)-phenoxy]-acetic Acid]",–
-42.62%,–,"O=C(O)COc1ccc(-c2c(Br)ccc3sc4ccccc4c23)cc1 [Example 13, [4-(2-Bromo-dibenzothiophen-1-yl)-phenoxy]-acetic Acid]",–
-74.88%,–,"O=C(O)COc1c(Br)cc(-c2cccc3sc4ccccc4c23)cc1Br [Example 14, [2,6-Dibromo-4-(dibenzothiophen-1-yl)-phenoxy]-acetic acid]",–
-81.43%,1330 nM,"O=C(O)[C@@H](Cc1ccccc1)Oc1c(Br)cc(-c2cccc3sc4ccccc4c23)cc1Br [Example 19, (R)-2-[2,6-Dibromo-4-(dibenzothiophen-1-yl)-phenoxy]-3-phenyl-propionic acid]",–
-75.69%,604 nM,O=C(O)[C@@H](Cc1ccccc1)Oc1c(Br)cc(-c2c(Br)ccc3sc4ccccc4c23)cc1Br [Example 20],–
-87.44%,1390 nM,"O=C(O)[C@@H](CCN1C(=O)c2ccccc2C1=O)Oc1c(Br)cc(-c2c(Br)ccc3sc4ccccc4c23)cc1Br [Example 21, (R)-2-[2,6-Dibromo-4-(2-bromo-dibenzothiophen-1-yl)-phenoxy]-4-(1,3-dioxo-1,3-dihydro-isoindol-2-yl)-butyric acid]",–
–,–,"CN(C)c1ccc(-c2cccc3sc4ccccc4c23)cc1 [compound A (R=NMe2, R'=H)]",inactive
